The record followed here is article PMC7261837, “Circumdatin D Exerts Neuroprotective Effects by Attenuating LPS-Induced Pro-Inflammatory Responses and Downregulating Acetylcholinesterase Activity In Vitro and In Vivo” (Frontiers in Pharmacology, 2020).

Assay [1] deals with T1, acetylcholinesterase (AChE) from Electrophorus electrics (Electric eel) (Electrophorus electricus, UniProt O42275).
T1 construct: purchased Sigma Chemical Co. (St Louis, MO, USA)
The assay is described as follows: biochemical. The conditions noted are these: modified Ellman's colorimetric method; mean ± SD (n = 3). An excerpt:
Dulbecco's modified Eagle medium (DMEM), α-minimum essential medium (α-MEM) and fetal bovine serum (FBS) were provided by Hyclone (Waltham, USA). 3-(4,5-Dimethylthiazol-2-yl)-2,5-diphenyltetrazolium bromide (MTT), acetylcholinesterase (AChE) from Electrophorus electrics (Electric eel) and lipopolysaccharide (LPS) (Escherichia coli 055: B5) were provided by Sigma Chemical Co. (St Louis, MO, USA). Enzyme-linked immunosorbent assay (ELISA) kits for IL-1β and TNF-α and Griess reagent for nitric oxide (NO) assay kit were provided by ExCell Bio (Shanghai, China). Antibodies for TLR4, MyD88, JNK, p-JNK, p38, p-p38, ERK, p-ERK, IκB, p-IκB, IKK, p-IKK, NF-κB, STAT3、p-STAT3、Jak2, p-Jak2, GAPDH and Histone H3 were purchased from Cell Signaling Technology (Danvers, USA). Antibodies for iNOS and COX-2 were provided by Abcam (Cambridge, UK).
AChE activities in vitro and in vivo were assessed by a modified Ellman's spectrophotometric method ([Szwajgier, 2015]). Briefly, AChE (80 μl) in phosphate buffer (Na2HPO4/NaH2PO4, pH 8.0) and compound (20 μl) diluted in same phosphate buffer were added to 96 microplates as the reaction mixture. The mixture was incubated at 37°C for 30 min before addition of 10 μl 5,5′-dithiobis (2-nitrobenzoic acid) (DTNB) (3 mM) and 10 μl acetylthiocholine iodide (ATCI) (15 mM). After incubation for 20 min, the absorbance was detected at 412 nm using a microplate spectrophotometer (Thermo Scientifics, USA). […] The inhibitory rate of AChE was calculated, and the IC50 values were calculated by GraphPad Prism® 5.0 software (GraphPad Inc., San Diego, USA).
On the technique in general: In Ellman's method for cholinesterases, released thiocholine reacts with DTNB.

Another assay has as its system BV-2 cells. The assay is described as follows: LPS-induced NO production in BV-2 cells (Griess method). The conditions noted are these: 1 μg/ml LPS, 24 h. It counts as cell-based, murine. How it is done: BV-2 cells (murine microglia cell line) was obtained from Peking Union Medical College, Cell Bank (Beijing, China) and maintained in DMEM containing 10% FBS. Cells were grown in a humidified atmosphere of 5% CO2 incubator at 37°C.
BV2 cells were seeded and incubated overnight, and followed by treatment with different doses of circumdatins for indicated period with or without LPS (1 μg/ml) stimulation. The cells without circumdatins and LPS treatment were used as the control group.
The NO levels in culture media was determined using a Griess method. Cells were treated with different concentrations of circumdatins in the presence or absence of LPS for 24 h. After that, the supernatant fraction of the culture media was collected and mixed with the same volume of Griess reagent (1% sulfanilamide/0.1% naphthyl ethylene diamine dihydrochloride/2% H3PO4). Then, the absorbance was measured at 540 nm using a microplate spectrophotometer (Thermo Scientifics, USA). The concentration of nitrite was calculated from a calibration curve obtained from standards sodium nitrite solutions.

The subject of the next assay is NF-κB. The assay is described as follows: NF-κB luciferase reporter assay. It counts as cell-based. The conditions noted are these: Homo sapiens; SW480 cells stably transfected with NF-κB luciferase reporter gene, induced by LPS; mean ± SD (n = 3); read-out: NF-κB Activation IC50. As to the method: SW480-NF-κB cells were seeded at a density of 5 × 10^4 cells/well in 24-well plates and incubated with circumdatins with or without LPS stimulation for 6 h. The κB-dependent luciferase reporter activity in cell extracts was monitored using an automated microplate reader.
Background: A reporter such as luciferase makes a cellular process visible.

In another assay the target is Recombinant AChE (Homo sapiens, UniProt P22303). The assay is described as follows: biochemical. Particulars: SPR, 25°C, 1:1 Langmuir binding model; read-out: AChE Affinity Kd. How it is done:
The experiments for surface plasmon resonance (SPR) interaction were conducted at 25°C using the Biacore T200 system (GE Healthcare, Sweden). Recombinant AChE diluted in sodium acetate buffer (100 mM, pH 4.5) was used as the stock for the following experiments. CM5 sensor chips were coupled with AChE using an amine coupling kit (GE Healthcare, Buckinghamshire, UK). Thereafter, different concentrations of compounds were injected as analytes using PBS-P (10mM phosphate buffer with 2.7 mM KCl and 137 mM NaCl, 0.05% polysorbate 20, […]) as running buffer. For binding assays, the analytes were introduced with a 60 s contact time followed by a 60 s dissociation time at a flow rate of 45 μl/min. The surface was regenerated with 10 mM glycine (pH 3.0) for 30 s. The affinity constants were calculated using the 1:1 Langmuir binding model of Biacore evaluation software (T200 Version 1.0).

As a reminder, the IC50 is the concentration that gives 50% inhibition. A word on the Kd: it is the concentration at which binding is half-saturated.

T1 sequence (O42275 24-633): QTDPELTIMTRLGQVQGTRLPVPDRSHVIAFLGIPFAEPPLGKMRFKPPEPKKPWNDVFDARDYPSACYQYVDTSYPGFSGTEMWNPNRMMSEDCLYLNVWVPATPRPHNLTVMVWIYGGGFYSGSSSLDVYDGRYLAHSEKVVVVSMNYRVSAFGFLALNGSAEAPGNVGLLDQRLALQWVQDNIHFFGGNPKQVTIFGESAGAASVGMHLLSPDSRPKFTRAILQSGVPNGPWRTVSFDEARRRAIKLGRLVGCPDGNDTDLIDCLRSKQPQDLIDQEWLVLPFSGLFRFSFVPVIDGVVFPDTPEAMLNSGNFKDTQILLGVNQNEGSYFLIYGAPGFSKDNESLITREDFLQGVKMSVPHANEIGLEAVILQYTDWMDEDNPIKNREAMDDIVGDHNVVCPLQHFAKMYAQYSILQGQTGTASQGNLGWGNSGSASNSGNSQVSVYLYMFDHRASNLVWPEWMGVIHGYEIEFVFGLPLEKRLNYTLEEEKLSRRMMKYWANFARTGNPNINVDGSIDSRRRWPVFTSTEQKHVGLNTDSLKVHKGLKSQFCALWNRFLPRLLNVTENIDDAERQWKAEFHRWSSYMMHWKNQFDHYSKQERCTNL
Sequence of Recombinant AChE (P22303 32-614): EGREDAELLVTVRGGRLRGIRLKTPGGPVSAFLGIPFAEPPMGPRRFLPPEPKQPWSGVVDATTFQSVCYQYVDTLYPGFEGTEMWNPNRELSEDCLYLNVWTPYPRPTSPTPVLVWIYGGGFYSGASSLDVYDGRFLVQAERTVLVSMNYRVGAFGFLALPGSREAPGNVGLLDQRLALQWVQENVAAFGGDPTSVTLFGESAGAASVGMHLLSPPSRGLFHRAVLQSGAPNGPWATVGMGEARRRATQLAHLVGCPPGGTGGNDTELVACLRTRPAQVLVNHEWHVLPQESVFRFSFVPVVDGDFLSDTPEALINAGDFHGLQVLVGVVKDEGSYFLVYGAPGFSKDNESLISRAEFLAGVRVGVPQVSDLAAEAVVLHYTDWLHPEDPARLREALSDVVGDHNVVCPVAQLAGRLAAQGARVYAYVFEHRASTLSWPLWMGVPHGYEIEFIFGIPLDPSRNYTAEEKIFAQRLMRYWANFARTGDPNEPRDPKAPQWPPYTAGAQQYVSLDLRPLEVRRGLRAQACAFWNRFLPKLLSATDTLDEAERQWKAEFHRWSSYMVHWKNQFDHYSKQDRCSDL

Regarding `COc1ccc2nc3n(c(=O)c2c1)-c1ccccc1C(=O)N1CCC[C@@H]31` [circumdatin H], the results for the IC50 (in assay [1]; with NF-κB) were 98 ± 5.7 µM and 33.3 ± 1.4 µM, respectively. Further, in the assay on BV-2 cells, the “LPS-induced NO production” value was “decreased NO production only in high dose”. Moreover, the Kd at Recombinant AChE turned out to be 95 µM.

Take `C[C@@H]1NC(=O)c2cc(O)ccc2-n2c1nc1c(O)cccc1c2=O` [circumdatin I]: the IC50 in assay [1] was 11.6 ± 2.6 µM; with NF-κB it was 18.6 ± 1.9 µM. Moreover, in the assay on BV-2 cells, the “LPS-induced NO production” value is “decreased NO production only in high dose”. Also, on Recombinant AChE, the Kd was 65 µM.

Take `C[C@@H]1NC(=O)c2ccccc2-n2c1nc1c(O)cccc1c2=O` [circumdatin G]: the IC50 in assay [1] was 15.8 ± 2 µM; in the assay with NF-κB it was 18.9 ± 2.1 µM. Also, the “LPS-induced NO production” value in the assay with BV-2 cells was “significant reduction of NO levels”. In addition, the Kd at Recombinant AChE worked out at 120 µM.

On to `C[C@@H]1NC(=O)c2cc(O)ccc2-n2c1nc1ccccc1c2=O` [circumdatin C], for which the “LPS-induced NO production” value in the assay with BV-2 cells is given as “decreased NO production only in high dose”. For the same compound, the IC50 with NF-κB turned out to be 15.6 ± 2.3 µM. Besides, the dissociation constant (Kd) on Recombinant AChE is 85 µM.

`C[C@@H]1NC(=O)c2cc(O)c(O)cc2-n2c1nc1ccccc1c2=O` [2-hydroxycircumdatin C]: the IC50 in assay [1] amounted to 5.6 ± 0.9 µM; with NF-κB, 16.5 ± 1.9 µM. At Recombinant AChE, the Kd is 3.6 µM.

As for `C[C@@H]1NC(=O)c2ccccc2-n2c1nc1ccccc1c2=O` [circumdatin F], the results for the half-inhibitory concentration (IC50) (in assay [1]; with NF-κB) were 10 ± 1.9 µM and 11.8 ± 0.9 µM, respectively. For the same compound, the “LPS-induced NO production” value in the assay with BV-2 cells is listed as “decreased NO production only in high dose”. For the same compound, the Kd at Recombinant AChE stood at 240 µM.
